# Experimental data reported in patent publication US8361780B2, “Biological system and assay for identifying modulators of tubulin ligases” (University of Georgia Research Foundation, Inc., priority 2005, dated 2013).
# Columns and labels:
# [1] = tested on: Tetrahymena; conditions: cited from earlier work
# [2] = tested on: cell body microtubules of GFP-Ttll6Ap-overexpressing Tetrahymena cells; assay: Stability of cell body microtubules against microtubule-destabilizing compounds, GFP-Ttll6Ap-overexpressing cells; format: cell-based, Tetrahymena thermophila; conditions: nocodazole 40 μM, oryzalin 10 μM, 30 min
# Experimental: (§1) Immunofluorescence and electron microscopy. GFP-Ttll6Ap-expressing cells were grown in SPP with 0.5 to 2.5 μg of CdCl2/ml for 2 to 4 h. For GFP-Ttll6Ap localization, a 10-μl drop of cells was placed on a coverslip, followed by the addition of 20 μl of 2% paraformaldehyde in PHEM buffer (Schliwa and van Blerkom. 1981. J. Cell Biol. 90:222-235) and, after 20 s, the addition of 10 μl of 0.5% Triton X-100 in PHEM. The cells were subjected to immunofluorescence (Janke et al., 2005. Science 308:1758-1762) with the following primary antibodies: 12G10, an anti-α-tubulin monoclonal antibody (MAb) (Jerka-Dziadosz et al., 1995. Dev. Biol. 169:644-661) at 1:50; MAb ID5 (40), which in Tetrahymena is specific to polyglutamylated tubulin (Wloga et al., 2008. Eukaryot. Cell 7:1362-1372), at 1:50; poly(E) antipolyglutamic acid antibodies (1:100) (Shang et al., 2002. J. Cell Biol. 158:1195-1206); TAP952, an anti-monoglycylated tubulin MAb (1:5,000) (Bré et al., 1998. Mol. Biol. Cell 9:2655-2665; Callen et al., 1994. Biol. Cell 81:95-119); and 6-11 B-1, an anti-acetyl-K40 α-tubulin MAb (1:200) (LeDizet and Piperno. 1991.
# [3] = tested on: cytoplasmic microtubules of wild-type Tetrahymena cells; assay: Stability of cell body microtubules against microtubule-destabilizing compounds, wild-type cells; format: cell-based, Tetrahymena thermophila; conditions: nocodazole 40 μM, oryzalin 10 μM, 30 min
# Experimental: as §1
# [4] = tested on: 3AB-KO Tetrahymena cells; assay: Axoneme elongation by paclitaxel in 3AB-KO cells (immunofluorescence); format: cell-based, Tetrahymena thermophila; conditions: 25 μM paclitaxel for 4 hr
# Experimental: Cultures. Tetrahymena thermophila cells were grown in SPP medium. To determine the growth rate, cells were diluted to 10^4 cells/ml and grown in 10 ml of SPP in 150 ml flasks. In some experiments, paclitaxel (LC Laboratories, Woburn, Mass.) was added to the SPP medium. WT in Kalkutta and Tupfel longfin (commonly known as “WIK” and “TL”, respectively) zebrafish were raised at 28° C. at 14 hr light/10 hr dark cycle. The embryos were cultured in egg water at 28° C.
# Immunofluorescence and Electron Microscopy of Tetrahymena. Immuno-fluorescence was done as previously described (Wloga et al., 2006. Mol. Biol. Cell 17, 2799-2810) and quantified using mixed mutant and WT cells (fed with India ink) imaged side by side. The average pixel intensity was determined for sections of axonemes from the base to below the tip using ImageJ. TEM was performed as previously described (Jerka-Dziadosz et al., 2001. Protist 152, 53-67). For immunoelectron TEM, cells were fixed as for immunofluorescence, reacted with anti-GFP antibodies (1:1000; Abcam) in 3% bovine serum albumin (BSA) in the PHEM buffer with 0.1% Tween-20 for 2 hr, followed by anti-rabbit IgG-10 nm gold antibodies (GE Healthcare) at 1:60 in 3% BSA in PBS for 1.5 hr. […] After washing, cells were dehydrated in an ethanol series, embedded in Epon, sectioned, and analyzed in a JEM 1210 electron microscope.
# [5] = tested on: wild-type Tetrahymena cells; assay: Axoneme/cilium length in paclitaxel-treated wild-type cells (immunofluorescence); format: cell-based, Tetrahymena thermophila
# Experimental: as §1, with “1991. Methods Enzymol. 196:264-274). The secondary goat antibodies were as follows: anti-mouse-FITC, anti-mouse-Cy3, anti-rabbit-Cy3, and anti-rabbit-Cy5 (Zymed) at 1:200 dilutions. Cells were viewed under either Leica TCS SP or Zeiss LSM 510 VIS/META confocal microscopes. […] Confocal images were recorded with a 0.8-μm distance between z-sections, and sets of two to four z-sections were merged. The lengths of the cilia were measured by using ImageJ 1.37. […]” for “1991.”
# Immunofluorescence and Electron Microscopy of Tetrahymena. Immuno-fluorescence was done as previously described (Wloga et al., 2006. Mol. Biol. Cell 17, 2799-2810) and quantified using mixed mutant and WT cells (fed with India ink) imaged side by side. The average pixel intensity was determined for sections of axonemes from the base to below the tip using ImageJ. […] After washing, cells were dehydrated in an ethanol series, embedded in Epon, sectioned, and analyzed in a JEM 1210 electron microscope.
# [6] = tested on: GFP-Ttll6Ap-overproducing Tetrahymena cells; assay: Cilium length in paclitaxel-treated GFP-Ttll6Ap-overproducing cells (immunofluorescence); format: cell-based, Tetrahymena thermophila; conditions: 40 μM paclitaxel for 3 h
# Experimental: as §1, with “1991. Methods Enzymol. 196:264-274). The secondary goat antibodies were as follows: anti-mouse-FITC, anti-mouse-Cy3, anti-rabbit-Cy3, and anti-rabbit-Cy5 (Zymed) at 1:200 dilutions. Cells were viewed under either Leica TCS SP or Zeiss LSM 510 VIS/META confocal microscopes. To measure the length of the cilia, the cells were labeled with MAb 12G10, [and, in some experiments, double labeled with poly(E) antibodies]. Confocal images were recorded with a 0.8-μm distance between z-sections, and sets of two to four z-sections were merged. The lengths of the cilia were measured by using ImageJ 1.37. For transmission electron microscopy (TEM), the cells were prepared as described previously (Jerka-Dziadosz et al., 2001. Protist 152:53-67).” for “1991.”
# [7] = tested on: zebrafish embryos; assay: Morphology of zebrafish morphant embryos; conditions: in vivo
# From the text: (§2) MO Knockdowns in Zebrafish Embryos. TTLL3-ATG MO (5′ […] 3′; SEQ ID NO:129) and TTLL3-SP MO (5′ […] 3; SEQ ID NO:130) were obtained from Open Biosystems (Huntsville, AL). TTLL3-ATG targets the translation initiation site of ttll3 mRNA. TTLL3-SP is predicted to prevent splicing of exon 11 and cause a frame shift in exon 12. This would eliminate the coding sequence downstream of exon 10, which includes a conserved catalytic domain-encoding region. To evaluate the effect of TTLL3-SP on ttll3 mRNA, total RNA was isolated with TRIzol reagent (Invitrogen, Inc., Carlsbad, Calif.) from embryos at 7 hpf: 50 uninjected control embryos, 40 embryos injected with 3 ng TTLL3-SP MO, or 30 embryos injected with 5 ng TTLL3-SP MO. Total RNA ([…]) was used as a template for cDNA synthesis with random hexamers and oligo-dT primers and the iScript TM cDNA synthesis kit (Bio-Rad Laboratories, Hercules, Calif.). cDNA ([…]) was amplified with the following primers spanning exon 11: TTLL3-splice F, 5′-[…]-3′ (exon 10; SEQ ID NO:131); TTLL3-splice R, 5′-[…]-3′ (exon 12; SEQ ID NO:132). As expected, primers flanking exon 11 produced a shorter product in RT-PCR from embryos injected with TTLL3-SP than in controls (FIG. 50D). […] As a negative control, we injected 25 base MOs with a random base mixture at each position (Gene Tools, Inc., Philomath, Oreg.).
# [8] = tested on: zebrafish embryos; assay: Expression pattern of southpaw in zebrafish embryos (in situ hybridization); format: in vivo
# From the text: as §2
# (§3) Microscopy of Zebrafish. For whole-mount, in situ hybridization, embryos were fixed as previously described (Hagos and Dougan, 2007), stored in 100% methanol at −20° C., and stained with spaw, lefty1, lefty2, and cmlc2 probes (Yelon, 2001). Embryos were photographed under differential interference contrast with a Zeiss Axioplan 2 microscope with Slidebook (Intelligent Imaging Innovations, Denver, Colo.). For immunofluorescence, the embryos were manually dechorionated and fixed with 0.5% Triton X-100 and 4% paraformaldehyde in PBT (0.1% Tween-20 in PBS) at 4° C. overnight. After washing with PBT, embryos were dehydrated in methanol/PBT series and incubated overnight in 100% methanol at −20° C. After rehydration, embryos were blocked for 1-2 hr in 2% BSA, 0.5% normal goat serum,l%DMSO, 0.5% Triton X-100 in PBS, and incubated overnight at 4° C. with one of the following antibodies: 6-11 B-1 (1:1000); TAP952 (1:2000); AXO49 (1:2000); and GT335 (1:1000); polyE (1:500). After washing 3×10 min with 0.5% Triton X-100 in PBS, embryos were incubated overnight at 4° C. in anti-mouse-IgG-FITC or anti-rabbit-IgG-Cy3 (1:500; Zymed), washed (3×10 min), mounted in 100 mg/ml of DABCO (Sigma-Aldrich) in PBS, and examined on a Leica TCS SP confocal microscope.
# [9] = tested on: zebrafish embryos; assay: Expression pattern of lefty2 in zebrafish embryos (in situ hybridization); format: in vivo
# From the text: as §2, §3
# [10] = tested on: zebrafish embryos; assay: Heart position in zebrafish embryos, in situ hybridization; format: in vivo
# From the text: as §2, §3
# [11] = tested on: zebrafish embryos; assay: Heart position in zebrafish embryos, scoring live embryos; format: in vivo
# From the text: as §2
# [12] = tested on: zebrafish embryos; assay: Tubulin monoglycylation in cilia of zebrafish embryos (TAP952 immunofluorescence); format: in vivo
# From the text: as §2, §3
# [13] = GFP-Ttll6Ap-overexpressing cells
compound,measurement,setting,value
C[S+](C)[O-] [DMSO],concentration tolerated well,[1],up to 2.5%
COC(=O)Nc1nc2ccc(C(=O)c3cccs3)cc2[nH]1 [nocodazole],effect on cell body microtubules,[2],retained abundant cell body microtubules
same,effect on cytoplasmic microtubules,[3],rapid depolymerization of cytoplasmic microtubules
CC(=O)O[C@H]1C(=O)[C@@]2(C)[C@H]([C@H](OC(=O)c3ccccc3)[C@]3(O)C[C@H](OC(=O)[C@H](O)[C@@H](NC(=O)c4ccccc4)c4ccccc4)C(C)=C1C3(C)C)[C@]1(OC(C)=O)CO[C@@H]1C[C@@H]2O [paclitaxel],elongation of axonemes,[4],not observed
same,effect on axonemes,[5]; 25 μM paclitaxel for 4 hr,remarkable elongation of axonemes
same,increase of the average axoneme length,[5]; 40 μM paclitaxel for 3 h,20%
same,axoneme length after treatment,"[5]; 40 μM paclitaxel for 3 h, n=173",6.05±1.12 μm
same,elongation of preexisting cilia,[6]; [13],22%
same,"length of preexisting cilia, paclitaxel treated",[6]; [13],6.39±0.82 μm
same,"length of assembling cilia, paclitaxel treated",[6]; GFP-Ttll6Ap-overproducing cells,2.7±0.6 μm
same,change of length of assembling cilia,"[6]; GFP-Ttll6Ap-overproducing cells, vs no drug",44%
TTLL3-ATG-MO: antisense morpholino 5′ GTGTTGGTGCATGTTTGAGTTAACC 3′; targets the translation initiation site of ttll3 mRNA (all phosphorodiamidate morpholino (PMO)),hydrocephalic morphants,[7],10%
same,morphant embryos with curly tail,[7],76%
same,"southpaw expression: Bilatera or midline, number of embryos",[8],34
same,"southpaw expression: Bilatera or midline, percent of embryos",[8],(43.7%)
same,"southpaw expression: No specific signal, number of embryos",[8],19
same,"southpaw expression: No specific signal, percent of embryos",[8],(24.3%)
same,"southpaw expression: left, number of embryos",[8],14
same,"southpaw expression: left, percent of embryos",[8],(17.9%)
same,"southpaw expression: right, number of embryos",[8],11
same,"southpaw expression: right, percent of embryos",[8],(14.1%)
same,"lefty2 expression: Bilatera or midline, number of embryos",[9],5
same,"lefty2 expression: Bilatera or midline, percent of embryos",[9],(11.9%)
same,"lefty2 expression: No specific signal, number of embryos",[9],8
same,"lefty2 expression: No specific signal, percent of embryos",[9],(19%)
same,"lefty2 expression: left, number of embryos",[9],15
same,"lefty2 expression: left, percent of embryos",[9],(35.7%)
same,"lefty2 expression: right, number of embryos",[9],14
same,"lefty2 expression: right, percent of embryos",[9],(33.4%)
same,"heart position left, number of embryos",[10],21
same,"heart position left, percent of embryos",[10],50%
same,"heart position middle, number of embryos",[10],7
same,"heart position middle, percent of embryos",[10],16.7%
same,"heart position right, number of embryos",[10],14
same,"heart position right, percent of embryos",[10],(33.3%)
same,"heart position left, number of embryos",[11],56
same,"heart position left, percent of embryos",[11],50%
same,"heart position middle, number of embryos",[11],33
same,"heart position middle, percent of embryos",[11],29.5%
same,"heart position right, number of embryos",[11],23
same,"heart position right, percent of embryos",[11],(20.5%)
same,levels of tubulin monoglycylation/glycylation in cilia,"[12]; 72 hpf, TTLL3-ATG MO 1 ng, TTLL3-SP MO 3 ng",greatly reduced
same,morphants with TAP952 signal not detected in cilia of the distal part of pronephric duct,[12]; n=46,98%
same,morphants with TAP952 signal not detected in cilia of the medial part of pronephric duct,[12]; n=46,61%
same,morphants with TAP952 signal not detected in cilia of the spinal cord,[12]; n=46,89%
